Reference: PMC7265341, “Quantifying CDK inhibitor selectivity in live cells” (Nature Communications, 2020)
Like-named read-outs stand apart in the source and are kept apart here.

Assays:
CDK11B/Cyclin L2 = CDK11B/Cyclin L2 (Homo sapiens, UniProt P21127); test: NanoBRET live-cell target engagement, CDK11B-NanoLuc/Cyclin L2 in HEK-293; format: binding; conditions: CDK11b/L2; for IC50: read-out: IC50
CDK7 = CDK7 (Homo sapiens, UniProt P50613); test: NanoBRET live-cell target engagement, NanoLuc-CDK7 in HEK-293; format: binding; conditions: CDK7; for IC50: read-out: IC50
CDK6/Cyclin D1 = CDK6/Cyclin D1 (Homo sapiens, UniProt Q00534); test: NanoBRET live-cell target engagement, NanoLuc-CDK6/Cyclin D1 in HEK-293; format: binding; conditions: CDK6/D1; for IC50: read-out: IC50
Sequence of CDK6/Cyclin D1 (Q00534 whole entry): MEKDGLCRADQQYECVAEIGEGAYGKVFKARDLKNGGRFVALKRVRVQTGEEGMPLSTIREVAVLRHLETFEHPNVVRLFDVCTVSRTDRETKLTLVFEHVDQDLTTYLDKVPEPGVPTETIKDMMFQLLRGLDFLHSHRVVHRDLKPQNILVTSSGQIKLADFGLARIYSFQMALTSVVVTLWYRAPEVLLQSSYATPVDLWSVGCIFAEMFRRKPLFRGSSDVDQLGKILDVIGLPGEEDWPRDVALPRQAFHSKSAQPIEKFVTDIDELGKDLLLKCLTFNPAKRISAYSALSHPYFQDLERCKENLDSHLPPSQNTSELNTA
Sequence of CDK6/Cyclin D1 (P24385 whole entry partner): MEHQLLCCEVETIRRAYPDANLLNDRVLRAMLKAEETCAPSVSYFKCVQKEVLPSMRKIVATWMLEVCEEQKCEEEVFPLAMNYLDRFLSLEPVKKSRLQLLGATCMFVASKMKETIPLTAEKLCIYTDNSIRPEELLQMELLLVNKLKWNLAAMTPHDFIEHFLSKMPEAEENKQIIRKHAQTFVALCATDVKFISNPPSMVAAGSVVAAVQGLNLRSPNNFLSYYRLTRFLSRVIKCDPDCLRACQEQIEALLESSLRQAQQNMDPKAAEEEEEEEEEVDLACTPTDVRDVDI

CDK18/Cyclin Y = CDK18/Cyclin Y (Homo sapiens, UniProt Q07002); test: NanoBRET live-cell target engagement, CDK18-NanoLuc/Cyclin Y in HEK-293; format: binding; conditions: CDK18/Y; for IC50: read-out: IC50
CDK19/Cyclin C = CDK19/Cyclin C (Homo sapiens, UniProt Q9BWU1); test: NanoBRET live-cell target engagement, NanoLuc-CDK19/Cyclin C in HEK-293; conditions: CDK19/C
Sequence of CDK19/Cyclin C (Q9BWU1 whole entry): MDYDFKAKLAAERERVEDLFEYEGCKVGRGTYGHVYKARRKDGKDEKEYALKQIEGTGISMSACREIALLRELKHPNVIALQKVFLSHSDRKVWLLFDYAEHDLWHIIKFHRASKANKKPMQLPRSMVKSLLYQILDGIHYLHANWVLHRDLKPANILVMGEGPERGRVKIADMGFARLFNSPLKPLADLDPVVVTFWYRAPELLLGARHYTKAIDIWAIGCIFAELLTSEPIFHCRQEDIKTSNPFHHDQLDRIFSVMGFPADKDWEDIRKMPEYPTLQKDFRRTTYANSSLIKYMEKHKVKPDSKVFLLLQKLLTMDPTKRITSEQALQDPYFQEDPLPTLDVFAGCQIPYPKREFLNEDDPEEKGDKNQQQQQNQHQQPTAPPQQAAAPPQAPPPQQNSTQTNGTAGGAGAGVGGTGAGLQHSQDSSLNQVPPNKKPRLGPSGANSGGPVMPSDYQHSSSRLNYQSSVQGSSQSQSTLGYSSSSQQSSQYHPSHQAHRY
Sequence of CDK19/Cyclin C (P24863 whole entry partner): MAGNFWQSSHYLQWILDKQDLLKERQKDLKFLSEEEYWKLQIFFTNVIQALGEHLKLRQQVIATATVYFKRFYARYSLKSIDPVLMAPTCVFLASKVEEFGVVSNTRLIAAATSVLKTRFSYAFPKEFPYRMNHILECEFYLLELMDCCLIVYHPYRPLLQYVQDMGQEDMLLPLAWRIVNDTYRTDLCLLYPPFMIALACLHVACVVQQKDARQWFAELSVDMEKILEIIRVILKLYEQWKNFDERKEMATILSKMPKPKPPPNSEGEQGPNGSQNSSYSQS

CDK13/Cyclin K = CDK13/Cyclin K (Homo sapiens, UniProt Q14004); test: NanoBRET live-cell target engagement, CDK13-NanoLuc/Cyclin K in HEK-293; format: binding; conditions: CDK13/K
CDK11A/Cyclin L2 = target: T1, CDK11A/Cyclin L2 (Homo sapiens, UniProt Q9UQ88); test: NanoBRET live-cell target engagement, CDK11A-NanoLuc/Cyclin L2 in HEK-293; format: binding; conditions: CDK11a/L2; for IC50: read-out: IC50
T1 sequence (Q9UQ88 1-783): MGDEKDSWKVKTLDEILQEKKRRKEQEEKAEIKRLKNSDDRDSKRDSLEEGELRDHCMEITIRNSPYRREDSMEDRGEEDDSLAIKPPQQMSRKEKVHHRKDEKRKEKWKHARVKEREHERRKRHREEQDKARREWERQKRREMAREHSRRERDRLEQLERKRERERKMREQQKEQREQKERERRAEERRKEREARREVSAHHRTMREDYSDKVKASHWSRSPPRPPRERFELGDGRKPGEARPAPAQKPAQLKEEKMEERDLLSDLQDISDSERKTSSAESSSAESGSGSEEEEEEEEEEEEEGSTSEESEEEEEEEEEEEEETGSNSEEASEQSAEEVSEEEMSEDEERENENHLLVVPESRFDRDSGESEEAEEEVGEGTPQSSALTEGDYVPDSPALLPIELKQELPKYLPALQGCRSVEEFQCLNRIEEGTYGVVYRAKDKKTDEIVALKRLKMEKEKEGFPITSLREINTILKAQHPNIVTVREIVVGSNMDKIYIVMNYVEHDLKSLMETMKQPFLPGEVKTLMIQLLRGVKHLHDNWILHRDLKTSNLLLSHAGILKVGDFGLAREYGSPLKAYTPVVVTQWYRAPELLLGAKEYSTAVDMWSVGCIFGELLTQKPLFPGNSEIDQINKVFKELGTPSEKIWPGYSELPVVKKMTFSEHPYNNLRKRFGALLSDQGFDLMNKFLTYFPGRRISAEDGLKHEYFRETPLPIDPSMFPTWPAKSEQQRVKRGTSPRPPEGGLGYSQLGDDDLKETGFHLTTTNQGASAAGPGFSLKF

CDK20/Cyclin H = CDK20/Cyclin H (Homo sapiens, UniProt Q8IZL9); test: NanoBRET live-cell target engagement, NanoLuc-CDK20/Cyclin H in HEK-293; format: binding; conditions: CDK20/H
CDK17/Cyclin Y = CDK17/Cyclin Y (Homo sapiens, UniProt Q00537); test: NanoBRET live-cell target engagement, CDK17-NanoLuc/Cyclin Y in HEK-293; format: binding; conditions: CDK17/Y; for IC50: read-out: IC50
Sequence of CDK17/Cyclin Y (Q00537 whole entry): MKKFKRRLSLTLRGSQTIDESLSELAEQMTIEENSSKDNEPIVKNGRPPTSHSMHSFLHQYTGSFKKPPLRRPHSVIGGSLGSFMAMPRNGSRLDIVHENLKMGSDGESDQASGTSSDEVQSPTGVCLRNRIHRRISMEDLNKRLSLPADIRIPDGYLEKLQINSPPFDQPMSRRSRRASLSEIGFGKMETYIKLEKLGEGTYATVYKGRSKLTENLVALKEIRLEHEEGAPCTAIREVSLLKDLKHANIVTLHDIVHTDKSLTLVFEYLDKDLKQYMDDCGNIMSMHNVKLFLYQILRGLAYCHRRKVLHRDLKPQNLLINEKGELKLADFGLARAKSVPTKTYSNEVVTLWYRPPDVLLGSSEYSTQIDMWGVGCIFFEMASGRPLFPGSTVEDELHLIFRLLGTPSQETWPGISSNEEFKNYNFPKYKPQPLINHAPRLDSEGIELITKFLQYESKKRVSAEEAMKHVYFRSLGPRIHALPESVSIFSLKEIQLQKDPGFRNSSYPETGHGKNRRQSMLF
Sequence of CDK17/Cyclin Y (Q8ND76 whole entry partner): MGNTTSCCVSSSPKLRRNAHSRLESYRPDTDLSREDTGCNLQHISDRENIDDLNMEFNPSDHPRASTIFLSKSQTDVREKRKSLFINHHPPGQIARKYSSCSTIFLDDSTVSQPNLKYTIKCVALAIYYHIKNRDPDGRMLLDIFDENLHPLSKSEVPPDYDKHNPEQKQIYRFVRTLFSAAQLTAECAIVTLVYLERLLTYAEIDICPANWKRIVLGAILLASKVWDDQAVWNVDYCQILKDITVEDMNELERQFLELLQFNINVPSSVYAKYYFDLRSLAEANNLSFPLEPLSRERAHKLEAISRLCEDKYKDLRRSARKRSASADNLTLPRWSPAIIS

CDK9/Cyclin K = CDK9/Cyclin K (Homo sapiens, UniProt P50750); test: NanoBRET live-cell target engagement, NanoLuc-CDK9/Cyclin K in HEK-293; format: binding; conditions: CDK9/K
CDK15/Cyclin Y = CDK15/Cyclin Y (Homo sapiens, UniProt Q96Q40); test: NanoBRET live-cell target engagement, NanoLuc-CDK15/Cyclin Y in HEK-293; format: binding
CDK3/Cyclin E1 = CDK3/Cyclin E1 (Homo sapiens, UniProt Q00526); test: NanoBRET live-cell target engagement, CDK3-NanoLuc/Cyclin E1 in HEK-293; format: binding; conditions: CDK3/E1
Sequence of CDK3/Cyclin E1 (Q00526 whole entry): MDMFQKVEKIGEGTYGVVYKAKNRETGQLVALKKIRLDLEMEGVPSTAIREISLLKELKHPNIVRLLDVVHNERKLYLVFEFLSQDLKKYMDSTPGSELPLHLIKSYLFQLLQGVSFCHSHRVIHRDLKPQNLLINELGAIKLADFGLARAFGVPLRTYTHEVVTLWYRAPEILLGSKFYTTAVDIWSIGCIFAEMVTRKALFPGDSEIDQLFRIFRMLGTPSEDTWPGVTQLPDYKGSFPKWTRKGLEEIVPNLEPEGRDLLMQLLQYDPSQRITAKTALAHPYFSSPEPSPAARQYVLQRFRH
Sequence of CDK3/Cyclin E1 (P24864 whole entry partner): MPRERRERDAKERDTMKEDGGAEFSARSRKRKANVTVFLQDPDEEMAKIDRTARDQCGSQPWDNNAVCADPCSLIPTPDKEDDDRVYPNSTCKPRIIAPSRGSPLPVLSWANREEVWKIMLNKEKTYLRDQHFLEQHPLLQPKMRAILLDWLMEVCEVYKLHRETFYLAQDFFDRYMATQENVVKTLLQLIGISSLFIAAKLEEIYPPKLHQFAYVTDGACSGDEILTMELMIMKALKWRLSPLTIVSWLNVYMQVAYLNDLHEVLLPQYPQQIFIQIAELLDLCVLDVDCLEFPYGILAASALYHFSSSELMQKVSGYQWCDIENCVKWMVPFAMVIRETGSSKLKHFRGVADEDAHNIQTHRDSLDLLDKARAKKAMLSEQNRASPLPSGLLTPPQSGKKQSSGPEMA

CDK2/Cyclin E1 = CDK2/Cyclin E1 (Homo sapiens, UniProt P24941); test: NanoBRET live-cell target engagement, CDK2-NanoLuc/Cyclin E1 in HEK-293; format: binding; conditions: CDK2/E1; for IC50: read-out: IC50
CDK16/Cyclin Y = CDK16/Cyclin Y (Homo sapiens, UniProt Q00536); test: NanoBRET live-cell target engagement, CDK16-NanoLuc/Cyclin Y in HEK-293; format: binding; conditions: CDK16/Y; for IC50: read-out: IC50
CDK5/CDK5R1 = CDK5/CDK5R1 (Homo sapiens, UniProt Q00535); test: NanoBRET live-cell target engagement, CDK5-NanoLuc/CDK5R1 in HEK-293; format: binding; conditions: CDK5/CDK5R1
Sequence of CDK5/CDK5R1 (Q00535 whole entry): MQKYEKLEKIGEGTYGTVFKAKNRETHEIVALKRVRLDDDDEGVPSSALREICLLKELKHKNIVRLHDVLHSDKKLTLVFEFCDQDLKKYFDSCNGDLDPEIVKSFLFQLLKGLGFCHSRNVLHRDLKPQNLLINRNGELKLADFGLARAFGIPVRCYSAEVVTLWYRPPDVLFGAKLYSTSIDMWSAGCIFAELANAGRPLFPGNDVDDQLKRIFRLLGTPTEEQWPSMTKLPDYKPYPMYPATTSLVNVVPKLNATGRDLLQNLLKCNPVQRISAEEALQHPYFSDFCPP
Sequence of CDK5/CDK5R1 (Q15078 whole entry partner): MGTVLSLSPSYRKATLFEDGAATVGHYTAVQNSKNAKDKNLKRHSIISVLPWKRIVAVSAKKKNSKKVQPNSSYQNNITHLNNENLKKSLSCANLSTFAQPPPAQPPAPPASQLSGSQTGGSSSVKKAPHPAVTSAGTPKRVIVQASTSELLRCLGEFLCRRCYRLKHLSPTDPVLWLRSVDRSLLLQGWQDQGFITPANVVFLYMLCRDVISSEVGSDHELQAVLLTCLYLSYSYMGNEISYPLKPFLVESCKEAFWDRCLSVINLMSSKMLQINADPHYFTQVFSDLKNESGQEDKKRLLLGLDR

CDK1/Cyclin E1 = CDK1/Cyclin E1 (Homo sapiens, UniProt P06493); test: NanoBRET live-cell target engagement, CDK1-NanoLuc/Cyclin E1 in HEK-293; format: binding; conditions: CDK1/E1
CDK4/Cyclin D1 = CDK4/Cyclin D1 (Homo sapiens, UniProt P11802); test: NanoBRET live-cell target engagement, NanoLuc-CDK4/Cyclin D1 in HEK-293; format: binding; conditions: CDK4/D1; for IC50: read-out: IC50
Sequence of CDK4/Cyclin D1 (P11802 whole entry): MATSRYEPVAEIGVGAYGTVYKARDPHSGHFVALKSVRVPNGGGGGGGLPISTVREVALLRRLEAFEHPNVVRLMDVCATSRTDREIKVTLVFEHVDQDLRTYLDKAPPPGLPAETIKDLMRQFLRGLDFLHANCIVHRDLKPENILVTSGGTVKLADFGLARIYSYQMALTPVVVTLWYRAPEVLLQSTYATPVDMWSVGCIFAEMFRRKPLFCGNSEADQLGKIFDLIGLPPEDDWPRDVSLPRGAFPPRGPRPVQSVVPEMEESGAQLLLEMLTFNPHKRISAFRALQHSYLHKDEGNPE
Sequence of CDK4/Cyclin D1 (P24385 whole entry partner): as the sequence (P24385 whole entry partner) above

CDK8/Cyclin C = CDK8/Cyclin C (Homo sapiens, UniProt P49336); test: NanoBRET live-cell target engagement, NanoLuc-CDK8/Cyclin C in HEK-293; format: binding; conditions: CDK8/C
CDK12/Cyclin K = CDK12/Cyclin K (Homo sapiens, UniProt Q9NYV4); test: NanoBRET live-cell target engagement, CDK12-NanoLuc/Cyclin K in HEK-293; format: binding; conditions: CDK12/K

Sequence of CDK11B/Cyclin L2 (P21127 1-782 isoform P21127-2): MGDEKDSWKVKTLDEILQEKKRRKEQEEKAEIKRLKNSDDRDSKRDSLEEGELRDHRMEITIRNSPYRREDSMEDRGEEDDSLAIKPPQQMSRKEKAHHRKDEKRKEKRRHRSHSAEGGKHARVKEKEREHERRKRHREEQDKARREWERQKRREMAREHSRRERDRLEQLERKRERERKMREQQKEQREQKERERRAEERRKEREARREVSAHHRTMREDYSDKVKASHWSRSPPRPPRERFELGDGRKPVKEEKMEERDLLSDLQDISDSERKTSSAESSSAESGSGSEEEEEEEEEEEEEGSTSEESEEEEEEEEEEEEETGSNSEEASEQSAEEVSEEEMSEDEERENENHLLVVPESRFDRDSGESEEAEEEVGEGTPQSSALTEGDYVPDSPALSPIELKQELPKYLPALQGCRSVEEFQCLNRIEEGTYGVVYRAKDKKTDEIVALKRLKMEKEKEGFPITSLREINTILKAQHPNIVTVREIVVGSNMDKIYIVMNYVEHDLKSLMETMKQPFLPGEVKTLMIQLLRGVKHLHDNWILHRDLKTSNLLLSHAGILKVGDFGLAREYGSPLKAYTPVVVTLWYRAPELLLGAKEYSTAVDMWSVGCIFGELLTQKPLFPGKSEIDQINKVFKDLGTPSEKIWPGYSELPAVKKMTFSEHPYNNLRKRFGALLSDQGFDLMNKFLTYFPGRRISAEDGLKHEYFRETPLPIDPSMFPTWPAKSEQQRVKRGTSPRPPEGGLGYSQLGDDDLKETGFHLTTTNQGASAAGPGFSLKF

In the case of `CC(C)c1c2cc(-c3ccnc(N[C@H]4CC[C@H](NC5CCOCC5)CC4)n3)ccc2nn1C` [LY2857785], the “Inhibition at 10µM (%)” value (CDK11B/Cyclin L2; average) is reported as 94.8%, the IC50 (CDK11B/Cyclin L2; average (± SEM where n=3)) is reported as 24 nM and the “Inhibition at 10µM (%)” value (CDK11B/Cyclin L2; experiment 1) is reported as 95.7%. For the same compound, the IC50 (CDK11B/Cyclin L2; experiment 1) was 21 nM, the “Inhibition at 10µM (%)” value (CDK11B/Cyclin L2; experiment 2) was 93.9% and the IC50 (CDK11B/Cyclin L2; experiment 2) was 27 nM. For the same compound, the “Inhibition at 10µM (%)” value (CDK7; average) was 92.6%, the IC50 (CDK7; average (± SEM where n=3)) was 31 nM and the “Inhibition at 10µM (%)” value (CDK7; experiment 1) was 91.7%. For the same compound, the IC50 (CDK7; experiment 1) was 28 nM, the “Inhibition at 10µM (%)” value (CDK7; experiment 2) was 93.4% and the IC50 (CDK7; experiment 2) was 34 nM. For the same compound, the “Inhibition at 10µM (%)” value (CDK6/Cyclin D1; average) was 96.5%, the IC50 (CDK6/Cyclin D1; average (± SEM where n=3)) was 110 nM and the “Inhibition at 10µM (%)” value (CDK6/Cyclin D1; experiment 1) was 96.6%. For the same compound, the IC50 (CDK6/Cyclin D1; experiment 1) was 124 nM, the “Inhibition at 10µM (%)” value (CDK6/Cyclin D1; experiment 2) was 96.3% and the IC50 (CDK6/Cyclin D1; experiment 2) was 98 nM. For the same compound, the “Inhibition at 10µM (%)” value (CDK18/Cyclin Y; average) was 96.0%, the IC50 (CDK18/Cyclin Y; average (± SEM where n=3)) was 290 nM and the “Inhibition at 10µM (%)” value (CDK18/Cyclin Y; experiment 1) was 91.6%. For the same compound, the IC50 (CDK18/Cyclin Y; experiment 1) was 204 nM, the “Inhibition at 10µM (%)” value (CDK18/Cyclin Y; experiment 2) was 100.3% and the IC50 (CDK18/Cyclin Y; experiment 2) was 370 nM. For the same compound, the “Inhibition at 10µM (%)” value (CDK19/Cyclin C; average) was 82.9%, the “Inhibition at 10µM (%)” value (CDK19/Cyclin C; experiment 1) was 90.1% and the “Inhibition at 10µM (%)” value (CDK19/Cyclin C; experiment 2) was 75.7%. The “Inhibition at 10µM (%)” value (CDK13/Cyclin K; average) was 26.3%, the “Inhibition at 10µM (%)” value (CDK13/Cyclin K; experiment 1) was 28.2% and the “Inhibition at 10µM (%)” value (CDK13/Cyclin K; experiment 2) was 24.3%. For the same compound, the “Inhibition at 10µM (%)” value (CDK11A/Cyclin L2; average) was 95.5%, the IC50 (CDK11A/Cyclin L2; average (± SEM where n=3)) was 17 nM and the “Inhibition at 10µM (%)” value (CDK11A/Cyclin L2; experiment 1) was 95.3%. The IC50 (CDK11A/Cyclin L2; experiment 1) was 10 nM, the “Inhibition at 10µM (%)” value (CDK11A/Cyclin L2; experiment 2) was 95.7% and the IC50 (CDK11A/Cyclin L2; experiment 2) was 23 nM. For the same compound, the “Inhibition at 10µM (%)” value (CDK20/Cyclin H; experiment 1) was 39.4%, the “Inhibition at 10µM (%)” value (CDK20/Cyclin H; experiment 2) was 39.8% and the “Inhibition at 10µM (%)” value (CDK17/Cyclin Y; average) was 90.5%. For the same compound, the IC50 (CDK17/Cyclin Y; average (± SEM where n=3)) was 41 nM, the “Inhibition at 10µM (%)” value (CDK17/Cyclin Y; experiment 1) was 89.7% and the IC50 (CDK17/Cyclin Y; experiment 1) was 15 nM. For the same compound, the “Inhibition at 10µM (%)” value (CDK17/Cyclin Y; experiment 2) was 91.4%, the IC50 (CDK17/Cyclin Y; experiment 2) was 67 nM and the “Inhibition at 10µM (%)” value (CDK9/Cyclin K; average) was 97.9%. For the same compound, the “Inhibition at 10µM (%)” value (CDK9/Cyclin K; experiment 1) was 98.0%, the “Inhibition at 10µM (%)” value (CDK9/Cyclin K; experiment 2) was 97.9% and the “Inhibition at 10µM (%)” value (CDK15/Cyclin Y; CDK15/Y, average) was 93.6%. For the same compound, the IC50 (CDK15/Cyclin Y; CDK15/Y, average (± SEM where n=3), read-out: IC50) was 320 nM, the “Inhibition at 10µM (%)” value (CDK15/Cyclin Y; CDK15/Y, experiment 1) was 93.4% and the IC50 (CDK15/Cyclin Y; CDK15/Y, experiment 1, read-out: IC50) was 323 nM. For the same compound, the “Inhibition at 10µM (%)” value (CDK15/Cyclin Y; CDK15/Y, experiment 2) was 93.9%, the IC50 (CDK15/Cyclin Y; CDK15/Y, experiment 2, read-out: IC50) was 320 nM and the IC50 (CDK15/Cyclin Y; live HEK-293, 2 h, mean ± S.E.M. (n=3) or mean (n=2), read-out: IC50 for CDK/cyclin complexes, CDK15/Y) was 320 nM. The “Inhibition at 10µM (%)” value (CDK3/Cyclin E1; average) was 89.1%, the “Inhibition at 10µM (%)” value (CDK3/Cyclin E1; experiment 1) was 89.3% and the “Inhibition at 10µM (%)” value (CDK3/Cyclin E1; experiment 2) was 88.9%. The “Inhibition at 10µM (%)” value (CDK2/Cyclin E1; average) was 85.9%, the IC50 (CDK2/Cyclin E1; average (± SEM where n=3)) was 660 nM and the “Inhibition at 10µM (%)” value (CDK2/Cyclin E1; experiment 1) was 85.1%. The IC50 (CDK2/Cyclin E1; experiment 1) was 730 nM, the “Inhibition at 10µM (%)” value (CDK2/Cyclin E1; experiment 2) was 86.7% and the IC50 (CDK2/Cyclin E1; experiment 2) was 590 nM. The IC50 (CDK16/Cyclin Y; average (± SEM where n=3)) was 160 nM, the “Inhibition at 10µM (%)” value (CDK16/Cyclin Y; experiment 1) was 82.9% and the IC50 (CDK16/Cyclin Y; experiment 1) was 220 nM. The “Inhibition at 10µM (%)” value (CDK16/Cyclin Y; experiment 2) was 91.1%, the IC50 (CDK16/Cyclin Y; experiment 2) was 91 nM and the “Inhibition at 10µM (%)” value (CDK5/CDK5R1; average) was 68.7%. The “Inhibition at 10µM (%)” value (CDK5/CDK5R1; experiment 1) was 68.7%, the “Inhibition at 10µM (%)” value (CDK5/CDK5R1; experiment 2) was 68.7% and the “Inhibition at 10µM (%)” value (CDK1/Cyclin E1; average) was 76.5%. For the same compound, the “Inhibition at 10µM (%)” value (CDK1/Cyclin E1; experiment 1) was 76.1%, the “Inhibition at 10µM (%)” value (CDK1/Cyclin E1; experiment 2) was 76.9% and the “Inhibition at 10µM (%)” value (CDK4/Cyclin D1; average) was 97.1%. The IC50 (CDK4/Cyclin D1; average (± SEM where n=3)) was 40 nM, the “Inhibition at 10µM (%)” value (CDK4/Cyclin D1; experiment 1) was 97.8% and the IC50 (CDK4/Cyclin D1; experiment 1) was 44 nM. The “Inhibition at 10µM (%)” value (CDK4/Cyclin D1; experiment 2) was 96.5%, the IC50 (CDK4/Cyclin D1; experiment 2) was 36 nM and the “Inhibition at 10µM (%)” value (CDK8/Cyclin C; average) was 83.7%. The “Inhibition at 10µM (%)” value (CDK8/Cyclin C; experiment 1) was 88.4%, the “Inhibition at 10µM (%)” value (CDK8/Cyclin C; experiment 2) was 79.0% and the “Inhibition at 10µM (%)” value (CDK12/Cyclin K; average) was 43.6%. For the same compound, the “Inhibition at 10µM (%)” value (CDK12/Cyclin K; experiment 1) was 48.1% and the “Inhibition at 10µM (%)” value (CDK12/Cyclin K; experiment 2) was 39.1%.
